Measurements from paper PMC10623575, “Discovery of Potent and Selective CB2 Agonists Utilizing a Function-Based Computational Screening Protocol” (ACS Chemical Neuroscience, 2023).
Where two headings read alike, the source gives them in different places.

Legend:
CB2 receptor = target: T1, CB2 receptor (Homo sapiens, UniProt P34972); assay: Calcium mobilization assay, agonist mode, CHO expressing CB2 and Gα16; type: cell-based; conditions: for SI, selectivity index for the CB2, SI = EC50(CB1)/EC50(CB2): agonist mode
T1 construct: expressed in transfected cells
Procedure: (§1) Chinese hamster ovarian (CHO) cells collected from the American Type Culture Collection were maintained in Ham’s F-12K (Kaighn’s) supplemented with 100 mg/L streptomycin, 100 mg/L penicillin, and 10% fetal bovine serum (FBS) in a humidified atmosphere of 5% CO2 at 37 °C. CHO cells were co-transfected with plasmids encoding CB1 or CB2 and Gα16 by electroporation. To establish stable cell lines, transfected cells were seeded on 10 cm dishes with 40 μg/mL blasticidin and 1 mg/mL G418 in culture medium after 24 h. The selection medium was substituted once every 3 days until colonies formed. A solitary colony was obtained, propagated, and assessed using a calcium mobilization assay to verify the function and expression of the transfected genes.
(§2) 3 × 10^4 cells/well were employed to seed cells onto 96-well plates, which were subsequently incubated throughout the night. […] For antagonist mode, the extra dye was washed out and 50 μL of HBSS with test compounds, DMSO (negative control), or AM630 (positive control) was introduced. […] To be noticed, each experiment has been independently replicated three times, with three repetitions and eight gradients each time.
(§3) The collected data were processed with GraphPad Prism software (GraphPad). […] Means ± SEM were computed utilizing this software. The analyses were evaluated by the Student t test. When the p value is smaller than 0.05, the result is statistically significant.

CB1 receptor = CB1 receptor (Homo sapiens, UniProt P21554); assay: Calcium mobilization assay, agonist mode, CHO expressing CB1 and Gα16; type: cell-based
Procedure: as §1, §2, §3

[1] = agonist activity, CHO expressing CB2, three independent assays, mean ± SEM, read-out: CB2 EC50
[2] = single independent experiment, replicate 1, read-out: CB2 agonist(μM) replicate 1
[3] = single independent experiment, replicate 2, read-out: CB2 agonist(μM) replicate 2
[4] = single independent experiment, replicate 3, read-out: CB2 agonist(μM) replicate3
[5] = agonist activity, CHO expressing CB1, mean ± SEM, read-out: CB1 EC50

T1 sequence (P34972 whole entry): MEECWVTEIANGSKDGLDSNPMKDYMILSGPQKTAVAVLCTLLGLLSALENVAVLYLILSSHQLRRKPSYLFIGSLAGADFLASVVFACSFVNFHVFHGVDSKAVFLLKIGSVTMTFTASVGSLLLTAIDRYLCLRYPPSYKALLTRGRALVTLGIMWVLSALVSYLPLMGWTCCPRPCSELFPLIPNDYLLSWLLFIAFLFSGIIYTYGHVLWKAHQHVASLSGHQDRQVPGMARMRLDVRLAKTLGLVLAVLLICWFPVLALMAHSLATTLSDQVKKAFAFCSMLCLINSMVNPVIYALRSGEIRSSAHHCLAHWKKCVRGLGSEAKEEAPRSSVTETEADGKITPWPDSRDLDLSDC
CB1 receptor, sequence (P21554 whole entry): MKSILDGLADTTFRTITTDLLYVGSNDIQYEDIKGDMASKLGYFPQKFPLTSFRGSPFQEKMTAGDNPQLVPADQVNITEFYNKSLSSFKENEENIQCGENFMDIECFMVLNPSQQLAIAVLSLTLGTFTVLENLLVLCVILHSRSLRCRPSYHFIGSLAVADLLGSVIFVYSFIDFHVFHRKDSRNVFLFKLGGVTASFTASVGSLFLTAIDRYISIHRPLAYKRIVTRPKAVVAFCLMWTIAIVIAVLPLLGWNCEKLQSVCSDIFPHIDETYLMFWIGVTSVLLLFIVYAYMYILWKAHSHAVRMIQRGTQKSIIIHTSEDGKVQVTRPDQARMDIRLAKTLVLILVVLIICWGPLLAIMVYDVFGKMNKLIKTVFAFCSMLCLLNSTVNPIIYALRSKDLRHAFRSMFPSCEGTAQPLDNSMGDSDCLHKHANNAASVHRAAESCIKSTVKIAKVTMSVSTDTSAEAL

Row | EC50 (CB2 receptor; [1]) [µM] | SI, selectivity index for the CB2, SI = EC50(CB1)/EC50(CB2) (CB2 receptor) | EC50 (CB2 receptor; [2]) [µM] | EC50 (CB2 receptor; [3]) [µM] | EC50 (CB2 receptor; [4]) [µM] | EC50 (CB1 receptor; [5]) [µM] | SMILES | other results
1 | 3.22 ± 2.67 | >3 | 0.43 | 8.56 | 0.68 | > 10 | CC(C)CN1C(=O)SC(=Cc2ccccc2OCc2ccccc2C#N)C1=O [Compound 2, 2-((2-((3-Isobutyl-2,4-dioxothiazolidin-5-ylidene)methyl)phenoxy)methyl) Benzonitrile] | –
2 | > 10 | – | – | – | – | > 10 | COc1ccc(/C=C2\SC(=O)N(C(C)C)C2=O)cc1OC(=O)c1ccc(CCl)cc1 [Compound 30, 5-((3-Isopropyl-2,4-dioxothiazolidin-5-ylidene) Methyl)-2-methoxyphenyl 4-(Chloromethyl) Benzoate] | –
3 | 0.83 ± 0.65 | >12 | 0.093 | 0.287 | 2.12 | > 10 | COc1ccc(/C=C2\SC(=O)N(C(C)C)C2=O)cc1OC(=O)C12CC3CC(CC(C3)C1)C2 [Compound 32, 5-((3-Isopropyl-2,4-dioxothiazolidin-5-ylidene) Methyl)-2-methoxyphenyl (3r, 5r, 7r)-Adamantane-1-carboxylate] | –
4 | 0.37 ± 0.26 | >27 | 0.188 | 0.026 | 0.886 | > 10 | CC(C)N1C(=O)SC(=Cc2ccccc2OCc2ccccc2F)C1=O [Compound 6, 5-(2-((2-Fluorobenzyl)oxy)benzylidene)-3-isopropylthiazolidine-2,4-dione] | –
5 | 0.66 ± 0.34 | >15 | 0.166 | 1.31 | 0.489 | > 10 | CC(C)N1C(=O)SC(=Cc2ccccc2OC(=O)N2CCOCC2)C1=O [Compound 17, 2-((3-Isopropyl-2,4-dioxothiazolidin-5-ylidene)methyl)phenyl Morpholine-4-carboxylate] | –
6 | 3.38 ± 2.15 | >3 | 0.814 | 1.68 | 7.65 | > 10 | COc1ccc(C=C2SC(=O)N(C(C)C)C2=O)cc1OC(=O)C(C)(C)CCl [Compound 31, 5-((3-Isopropyl-2,4-dioxothiazolidin-5-ylidene) Methyl)-2-methoxyphenyl 3-Chloro-2,2-dimethylpropanoate] | –
7 | > 10 | – | – | – | – | > 10 | CC(C)N1C(=O)S/C(=C\c2ccccc2OC(=O)C23CC4CC(CC(C4)C2)C3)C1=O [Compound 19, 2-((3-Isopropyl-2,4-dioxothiazolidin-5-ylidene) Methyl) Phenyl (3r,5r,7r)-Adamantane-1-carboxylate] | –
8 | 3.64 ± 1.14 | >2 | 4.96 | 4.58 | 1.38 | > 10 | CC(C)N1C(=O)S/C(=C\c2ccccc2OC(=O)c2ccccc2F)C1=O [Compound 18, 2-((3-Isopropyl-2,4-dioxothiazolidin-5-ylidene)methyl) Phenyl 2-Fluoro Benzoate] | –
9 | > 10 | – | – | – | – | > 10 | COc1cc(COc2ccccc2C=C2SC(=O)N(CC(C)C)C2=O)cc(OC)c1 [Compound 11, 5-(2-((3,5-Dimethoxybenzyl)oxy)benzylidene)-3-isobutylthiazolidine-2,4-dione] | –
10 | 0.82 ± 0.41 | >12 | 0.225 | 0.638 | 1.6 | > 10 | CC(C)N1C(=O)SC(=Cc2ccccc2OC(=O)C2CCCCCC2)C1=O [Compound 23, 2-((3-Isopropyl-2,4-dioxothiazolidin-5-ylidene)methyl)phenyl Cycloheptane Carboxylate] | –
11 | > 10 | – | – | – | – | > 10 | CCCN1C(=O)SC(=Cc2ccccc2OCc2ccccc2C#N)C1=O [Compound 3, 2-((2-((2,4-Dioxo-3-propylthiazolidin-5-ylidene)methyl)phenoxy)methyl) Benzo Nitrile] | –
12 | > 10 | – | – | – | – | > 10 | COc1ccc(C=C2SC(=O)N(CC(C)C)C2=O)cc1OC(=O)c1cccc(Br)c1 [Compound 35, 5-((3-Isobutyl-2,4-dioxothiazolidin-5-ylidene)methyl)-2-methoxyphenyl 3-Bromobenzoate] | –
13 | 1.78 ± 0.25 | >5 | 1.66 | 2.26 | 1.44 | > 10 | CC(C)CN1C(=O)SC(=Cc2ccccc2OC(=O)c2ccccc2F)C1=O [Compound 13, 2-((3-Isobutyl-2,4-dioxothiazolidin-5-ylidene)methyl)phenyl 2-Fluorobenzoate] | –
14 | > 10 | – | – | – | – | > 10 | CC(C)CN1C(=O)SC(=Cc2cccc(OCc3ccccc3C#N)c2)C1=O [Compound 26, 2-((3-((3-Isobutyl-2,4-dioxothiazolidin-5-ylidene)methyl)phenoxy)methyl) Benzonitrile] | –
15 | > 10 | – | – | – | – | > 10 | COc1cc(COc2ccccc2C=C2SC(=O)N(C(C)C)C2=O)cc(OC)c1 [Compound 9, 5-(2-((3,5-Dimethoxybenzyl)oxy)benzylidene)-3-isopropylthiazolidine-2,4-dione] | CB1 and CB2 biological activity (in words) (CB2 receptor; CB1 and CB2 calcium mobilization assays, up to 10 μM): do not show biological activities
16 | 4.12 ± 1.31 | >2 | 2.19 | 6.61 | 3.56 | > 10 | CC(C)N1C(=O)SC(=Cc2ccccc2OC(=O)C2CC2)C1=O [Compound 22, 2-((3-Isopropyl-2,4-dioxothiazolidin-5-ylidene)methyl)phenyl Cyclopropane Carboxylate] | –

Row | SMILES | EC50 (CB2 receptor; [1]) [µM] | SI, selectivity index for the CB2, SI = EC50(CB1)/EC50(CB2) (CB2 receptor) | EC50 (CB2 receptor; [2]) [µM] | EC50 (CB2 receptor; [3]) [µM] | EC50 (CB2 receptor; [4]) [µM] | EC50 (CB1 receptor; [5]) [µM] | other results
17 | COc1ccc(/C=C2\SC(=O)N(CC(C)C)C2=O)cc1OC(=O)C12CC3CC(CC(C3)C1)C2 [Compound 37, 5-((3-Isobutyl-2,4-dioxothiazolidin-5-ylidene)methyl)-2-methoxyphenyl (3r, 5r,7r)-adamantane-1-carboxylate] | > 10 | – | – | – | – | > 10 | –
18 | N#Cc1ccccc1COc1cccc(C=C2SC(=O)N(C3CCCC3)C2=O)c1 [Compound 27, 2-((3-((3-Cyclopentyl-2,4-dioxothiazolidin-5-ylidene)methyl)phenoxy)methyl) Benzonitrile] | > 10 | – | – | – | – | > 10 | –
19 | CCCCN1C(=O)SC(=Cc2ccccc2OCc2ccccc2C#N)C1=O [Compound 4, 2-((2-((3-Butyl-2,4-dioxothiazolidin-5-ylidene)methyl)phenoxy)methyl)benzo Nitrile] | > 10 | – | – | – | – | > 10 | –
20 | CC(C)N1C(=O)SC(=Cc2ccccc2OCc2ccccc2C#N)C1=O [Compound 1, 2-((2-((3-Isopropyl-2,4-dioxothiazolidin-5-ylidene)methyl)phenoxy)methyl) Benzonitrile] | 3.12 ± 2.22 | >3 | 1.75 | 7.47 | 0.139 | > 10 | response against CHO–CB2 by calcium assay (CB2 receptor; 10 μM): > 40%; bioactivity against CB1 (in words) (CB1 receptor; 10 μM): no bioactivity
21 | CC(C)N1C(=O)SC(=Cc2ccccc2OCCN2CCOCC2)C1=O [Compound 8, 3-Isopropyl-5-(2-(2-morpholinoethoxy)benzylidene) Thiazolidine-2,4-dione] | – | 8 | – | – | – | – | EC50 (CB2 receptor; CB2 EC50, agonist activity, CHO expressing CB2, three independent assays, mean ± SEM): 0.09 ± 0.07 µM; EC50 (CB2 receptor; CB2 agonist(μM) replicate 1, single independent experiment, replicate 1): 0.227 µM; EC50 (CB2 receptor; CB2 agonist(μM) replicate 2, single independent experiment, replicate 2): 0.026 µM; EC50 (CB2 receptor; CB2 agonist(μM) replicate3, single independent experiment, replicate 3): 0.022 µM; EC50 (CB1 receptor; CB1 EC50, agonist activity, CHO expressing CB1, mean ± SEM): 0.75 ± 0.48 µM; EC50 (CB1 receptor; CB1 agonist(μM) replicate 1, single independent experiment, replicate 1): 0.455 µM; EC50 (CB1 receptor; CB1 agonist(μM) replicate 2, single independent experiment, replicate 2): 0.109 µM; EC50 (CB1 receptor; CB1 agonist(μM) replicate3, single independent experiment, replicate 3): 1.7 µM
